Data published in patent US20240368133A1, “Compounds for the Treatment of Pain, in Particular, Neuropathic Pain, and/or Other Diseases or Disorders that are Associated with AT2R and/or AT2R Mediated Signaling” (Confo Therapeutics N.V., priority 2021, published 2024).

Key:
human AT1R = human AT1R (Homo sapiens (Human), UniProt P30556); test: Counterscreen radioligand binding assay, displacement of 125I-[Sar1, Ile8]-Angiotensin II, hAT1R WT; conditions: for inhibition at 1 µM / inhibition at 10 µM: 125I-[Sar1, Ile8]-Ang II, semi-quantitative score; for inhibition at 1 µM: compound at 1 μM, read-out: % Displaced radioligand at 1 μM; for inhibition at 10 µM: compound at 10 μM, read-out: % Displaced radioligand at 10 μM; for IC50: HEK-293 cell membranes, read-out: Binding affinity On hAT1R IC50
Sequence of human AT1R (P30556 whole entry): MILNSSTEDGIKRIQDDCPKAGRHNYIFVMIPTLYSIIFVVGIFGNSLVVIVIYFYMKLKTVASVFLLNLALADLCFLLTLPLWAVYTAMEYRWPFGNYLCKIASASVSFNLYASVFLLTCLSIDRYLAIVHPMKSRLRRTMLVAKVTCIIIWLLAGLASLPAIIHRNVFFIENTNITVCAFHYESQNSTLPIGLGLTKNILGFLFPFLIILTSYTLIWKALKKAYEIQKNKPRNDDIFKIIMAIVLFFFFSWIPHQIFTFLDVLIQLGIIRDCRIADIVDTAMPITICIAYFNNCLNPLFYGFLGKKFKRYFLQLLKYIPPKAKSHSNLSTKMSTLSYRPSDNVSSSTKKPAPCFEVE
In short: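 Membranes from HEK-293 cells expressing human AT1R were incubated for one hour at 25° C, pH 7.4, with 0.05 nM radiolabelled [Sar1, Ile8]-Ang II and test ligand. Bound radioactivity was collected on PEI-soaked filters, with 10 μM unlabelled [Sar1]-Ang II defining non-specific binding. Results are percent displacement at 1 μM and […], or IC50 from eight-point duplicate curves.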

human AT2R fused to Cb23 = human AT2R fused to Cb23 (Homo sapiens, UniProt P50052); test: Radioligand binding assay, displacement of 125I-[Sar1, Ile8]-Angiotensin II, hAT2R Cb23; conditions: displacement of 125I-[Sar1, Ile8]-Angiotensin II, human AT2R fused to Cb23, HEK-293 cell membrane preparations; read-out: Binding affinity on hAT2R_Cb23 IC50
Sequence of human AT2R fused to Cb23 (P50052 whole entry, looked up, the tested form may be a part): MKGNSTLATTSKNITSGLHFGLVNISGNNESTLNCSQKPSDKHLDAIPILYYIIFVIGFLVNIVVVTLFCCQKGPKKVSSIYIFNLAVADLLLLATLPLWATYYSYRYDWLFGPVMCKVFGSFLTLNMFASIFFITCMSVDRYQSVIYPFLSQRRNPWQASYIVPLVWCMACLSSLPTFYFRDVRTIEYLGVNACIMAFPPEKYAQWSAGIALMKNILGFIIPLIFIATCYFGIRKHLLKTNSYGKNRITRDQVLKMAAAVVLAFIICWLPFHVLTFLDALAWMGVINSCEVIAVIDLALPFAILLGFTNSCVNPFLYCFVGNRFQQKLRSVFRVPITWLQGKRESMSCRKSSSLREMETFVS
In short: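 Membranes from HEK-293 cells expressing human AT2R fused to Cb23 were incubated with 0.05 nM 125I-[Sar1, Ile8]-Angiotensin II in 100 μL buffer (50 mM Tris, 5 mM MgCl2, 1 mM EDTA, 0.1% BSA, pH 7.4) for one hour at 25° C. Ligands were tested as eight-point dose-response curves in duplicate, with C21 and Angiotensin II as references.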

Row | inhibition at 1 µM (human AT1R) [%] | inhibition at 10 µM (human AT1R) [%] | IC50 (human AT2R fused to Cb23) [µM] | IC50 (human AT1R) [µM] | SMILES
1 | < 30 | < 30 | 8.39 | – | Cc1ccn2c(=O)cc(CN3CCN(c4cc(CC(C)C)ccc4-c4nn[nH]n4)CC3)nc2c1 [Compound A-72, 2-[[4-[5-isobutyl-2-(2H-tetrazol-5-yl)phenyl]piperazin-1-yl]methyl]-8-methyl-pyrido[1,2-a]pyrimidin-4-one]
2 | < 30 | < 30 | 0.00947 | – | Cc1cnc(CN2CCN(c3cc(CC(C)C)cc(F)c3-c3nn[nH]n3)CC2C)s1 (stereo not drawn) [Compound A-222, 2-[[4-[3-fluoro-5-isobutyl-2-(2H-tetrazol-5-yl)phenyl]-2-methyl-piperazin-1-yl]methyl]-5-methyl-thiazole]
3 | < 30 | < 30 | 15.9 | – | c1ccc(-c2nn[nH]n2)c(CN2CCN(c3nc4ccccc4s3)CC2)c1 [Compound A-03, 2-[4-[[2-(2H-tetrazol-5-yl)phen-yl]-methyl]piper-azin-1-yl]-1,3-benzothiazole]
4 | < 30 | < 30 | 1.17 | 47.4 | CCCc1ccc(-c2nn[nH]n2)c(N2CCN(Cc3nc4ccccc4n3C)CC2)c1 [Compound A-19, 1-methyl-2-[[4-[5-propyl-2-(2H-tetrazol-5-yl)phen-yl]piperazin-1-yl]-methyl]benzimid-azole]
5 | < 30 | 30 to 50 | 2.54 | 16.5 | CCS(=O)(=O)NC(=O)c1ccc(OC2CC2)cc1N1CCN(Cc2nc3ccccc3s2)CC1 [Compound A-41, 2-[4-(1,3-benzothiazol-2-ylmethyl)piperazin-1-yl]-4-(cyclopropoxy)-N-ethylsulfonyl-benzamide]
6 | < 30 | < 30 | 1.8 | 61.2 | Cc1ccc2nc(CN3CCN(c4cc(CC(C)C)ccc4-c4nn[nH]n4)CC3)cc(=O)n2c1 [Compound A-70, 2-[[4-[5-isobutyl-2-(2H-tetrazol-5-yl)-phenyl]piperazin-1-yl]methyl]-7-methyl-pyrido[1,2-a]pyrimidin-4-one]
7 | < 30 | 30 to 50 | 0.736 | 24.7 | CCNc1cc(-c2nn[nH]n2)c(N2CCN(Cc3nc4ccccc4s3)CC2)cc1CC(C)C [Compound A-140, 4-[4-(1,3-benzo-thiazol-2-ylmethyl)-piperazin-1-yl]-N-ethyl-2-isobutyl-5-(2H-tetrazol-5-yl)-aniline]
8 | < 30 | < 30 | 0.488 | 41.7 | CC(C)=Cc1ccc(-c2nn[nH]n2)c(N2CCN(Cc3nc4ccccc4n3C)CC2)c1 [Compound A-21, 1-methyl-2-[[4-[5-(2-methylprop-1-enyl)-2-(2H-tetrazol-5-yl)phen-yl]piperazin-1-yl]-methyl]benzimid-azole]
9 | < 30 | < 30 | 0.203 | – | Cc1cnc(CN2CCN(c3cc(CC(C)C)cc(F)c3-c3nn[nH]n3)CC2)c(C)c1 [Compound A-197, 1-[(3,5-dimethyl-2-pyridyl)methyl]-4-[3-fluoro-5-isobutyl-2-(2H-tetrazol-5-yl)phenyl]piperazine]
10 | < 30 | < 30 | 0.048 | 40.1 | CCc1nc2ccc(N(Cc3ccccc3Cl)C(=O)c3cccs3)cc2c(=O)n1CC1CCN(c2ccccc2-c2nn[nH]n2)CC1 [Compound A-248, N-[(2-chlorophenyl)methyl]-N-[2-ethyl-4-oxo-3-[[1-[2-(2H-tetrazol-5-yl)phenyl]-4-piperidyl]methyl]quinazolin-6-yl]thiophene-2-carboxamide]
11 | < 30 | < 30 | 13.6 | – | CCS(=O)(=O)NC(=O)c1ccccc1N1CCN(Cc2nc3ccccc3n2C)CC1 [Compound A-13, N-ethylsulfonyl-2-[4-[(1-methylbenzimidazol-2-yl)methyl]piperazin-1-yl]benzamide]
12 | < 30 | < 30 | 5.46 | – | c1ccc2sc(CN3CCN(c4cc(C5CC5)cnc4-c4nn[nH]n4)CC3)nc2c1 [Compound A-143, 2-[[4-[5-cycloprop-yl-2-(2H-tetrazol-5-yl)-3-pyridyl]piper-azin-1-yl]methyl]-1,3-benzothiazole]
13 | < 30 | < 30 | 6 | – | Cc1cc(CN2CCN(c3cc(CC(C)C)ccc3-c3nn[nH]n3)CC2)n(C)n1 [Compound A-104, 1-[(2,5-dimethyl-pyrazol-3-yl)meth-yl]-4-[5-isobutyl-2-(2H-tetrazol-5-yl)-phenyl]piperazine]
14 | < 30 | < 30 | 10.6 | – | CC(C)Cc1ccc(-c2nn[nH]n2)c(N2CCN(Cc3nc(=O)c4cnn(C)c4[nH]3)CC2)c1 [Compound A-69, 6-[[4-[5-isobutyl-2-(2H-tetrazol-5-yl)-phenyl]piperazin-1-yl]methyl]-1-methyl-7H-pyr-azolo[3,4-d]pyrimi-din-4-one]
15 | < 30 | < 30 | 0.16 | – | CC(C)Cc1cc(F)c(-c2nn[nH]n2)c(N2CCN(Cc3nc4ccccc4c(=O)[nH]3)CC2)c1 [Compound A-154, 2-[[4-[3-fluoro-5-isobutyl-2-(2H-tetrazol-5-yl)phen-yl]piperazin-1-yl]-methyl]-3H-quin-azolin-4-one]
16 | < 30 | < 30 | 4.96 | – | CNc1cc(-c2nn[nH]n2)c(N2CCN(Cc3nc4ccccc4s3)CC2)cc1CC(C)C [Compound A-139, 4-[4-(1,3-benzothi-azol-2-ylmethyl)-piperazin-1-yl]-2-isobutyl-N-methyl-5-(2H-tetrazol-5-yl)aniline]
17 | < 30 | < 30 | 9.74 | – | c1ccc2sc(CN3CCN(c4nc(C5CC5)cnc4-c4nn[nH]n4)CC3)nc2c1 [Compound A-146, 2-[[4-[6-cycloprop-yl-3-(2H-tetrazol-5-yl)pyrazin-2-yl]-piperazin-1-yl]-methyl]-1,3-benzo-thiazole]
18 | < 30 | < 30 | 0.0744 | – | Cc1cc(C2CC2)cc(N2CCN(Cc3nc4ccccc4s3)CC2)c1-c1nn[nH]n1 [Compound A-127, 2-[[4-[5-cycloprop-yl-3-methyl-2-(2H-tetrazol-5-yl)phen-yl]piperazin-1-yl]-methyl]-1,3-benzo-thiazole]
19 | < 30 | < 30 | 4.48 | – | Cc1noc(C)c1CN1CCN(c2cc(CC(C)C)ccc2-c2nn[nH]n2)CC1 [Compound A-101]
20 | < 30 | < 30 | 6.21 | – | CCS(=O)(=O)NC(=O)c1ccccc1CN1CCN(c2nc3ccccc3s2)CC1 [Compound A-02, 2-[[4-(1,3-benzo-thiazol-2-yl)piper-azin-1-yl]methyl]-N-ethylsulfonyl-benzamide]
21 | < 30 | < 30 | 2.01 | – | CC(C)Cc1cc(F)c(-c2nn[nH]n2)c(N2CCN(Cc3cc(Cl)c(F)cn3)CC2)c1 [Compound A-210, 1-[(4-chloro-5-fluoro-2-pyridyl)-methyl]-4-[3-fluoro-5-isobutyl-2-(2H-tetrazol-5-yl)phen-yl]piperazine]
22 | < 30 | < 30 | 4.82 | – | CCS(=O)(=O)NC(=O)c1ccc(OC(C)C)cc1N1CCN(Cc2nc3ccccc3n2C)CC1 [Compound A-14, N-ethylsulfonyl-4-isopropoxy-2-[4-[(1-methylbenzimidazol-2-yl)methyl]piperazin-1-yl]benzamide]
23 | < 30 | < 30 | 3.81 | – | Cc1nc(CN2CCN(c3cc(CC(C)C)ccc3-c3nn[nH]n3)CC2)cs1 [Compound A-87]
24 | < 30 | < 30 | 0.0158 | – | CNc1cc(CC(C)C)cc(N2CCN(Cc3cccnn3)CC2)c1-c1nn[nH]n1 [Compound A-171, 5-isobutyl-N-meth-yl-3-[4-(pyridazin-3-ylmethyl)piper-azin-1-yl]-2-(2H-tetrazol-5-yl)aniline]
25 | < 30 | < 30 | 0.0139 | – | CC(C)Cc1cc(F)c(-c2nn[nH]n2)c(N2CCN(Cc3cccnn3)C(C)C2C)c1 (stereo not drawn) [Compound A-188, 3-[[4-[3-fluoro-5-isobutyl-2-(2H-tetrazol-5-yl)phen-yl]-2,3-dimethyl-piperazin-1-yl]-methyl]pyridazine]
26 | < 30 | < 30 | 0.212 | – | Cc1ccnc(CN2CCN(c3cc(CC(C)C)cc(F)c3-c3nn[nH]n3)CC2)c1 [Compound A-204, 1-[3-fluoro-5-isobutyl-2-(2H-tetrazol-5-yl)phen-yl]-4-[(4-methyl-2-pyridyl)methyl]-piperazine]
27 | < 30 | < 30 | 2.74 | – | Cc1cnc(CN2CCN(c3cc(CC(C)C)cnc3-c3nn[nH]n3)CC2)s1 [Compound A-221, 2-((4-(5-isobutyl-2-(2H-tetrazol-5-yl)pyridin-3-yl)piperazin-1-yl)methyl)-5-methylthiazole]
